ChEMBL document CHEMBL4393738, “Design of hybrid molecules as antimycobacterial compounds: Synthesis of isoniazid-naphthoquinone derivatives and their activity against susceptible and resistant strains of Mycobacterium tuberculosis” (Bioorg Med Chem, 2019)
In brackets after ≈: the same amount, converted by molar mass.

Legend:
[1] = Selectivity index, ratio of IC50 for mouse J774.A1 cells to MIC for Mycobacterium tuberculosis H37Rv; format: toxicity; conditions: read-out: Selectivity Index
[2] = Selectivity index, ratio of IC50 for mouse J774.A1 cells to MIC for Mycobacterium tuberculosis INH R1 ATCC 35822; format: toxicity; conditions: read-out: Selectivity Index
[3] = Selectivity index, ratio of IC50 for mouse J774.A1 cells to MIC for Mycobacterium tuberculosis INH R2; format: toxicity; conditions: read-out: Selectivity Index
J774.A1 = assay: Cytotoxicity against mouse J774.A1 cells measured after 24 hrs by resazurin based assay; format: cell-based; conditions: J774.A1, 24 h

| SMILES | selectivity ratio [1] | selectivity ratio [2] | selectivity ratio [3] | IC50 (J774.A1) [µg/mL] |
| --- | --- | --- | --- | --- |
| CC1(C)OC2=C(CC1I)C(=O)C(=O)c1ccccc12 (stereo not given) | 1 | 1 | 0.5 | 3.2 (≈ 8.69 µM) |
| CC1(C)CC2=C(O1)/C(=N\NC(=O)c1ccncc1)c1ccccc1C2=O | 0.7 | 0.2 | 0.1 | 17 (≈ 48.9 µM) |
| CC1(C)CCC2=C(O1)c1ccccc1/C(=N/NC(=O)c1ccncc1)C2=O | > 250 | > 4 | > 32 | > 200 |
| CC1(C)OC2=C(C(=O)/C(=N\NC(=O)c3ccncc3)c3ccccc32)C1O (stereo not given) | > 32 | > 1 | > 2 | > 200 |
| CC1(C)OC2=C(C(=O)C(=O)c3ccccc32)C1Nc1ccccc1 (stereo not given) | 0.6 | 0.6 | 0.3 | 1.82 (≈ 5.7 µM) |
| CC1(C)OC2=C(CC1Br)C(=O)C(=O)c1ccccc12 (stereo not given) | 0.3 | 0.3 | 0.6 | 1.93 (≈ 6.01 µM) |
| CC1(C)OC2=C(C(=O)C(=O)c3ccccc32)[C@H](n2cc(-c3ccccc3)nn2)[C@H]1Br (racemic) | 0.9 | 0.2 | 0.1 | 1.47 (≈ 3.17 µM) |
| CC1(C)CC2=C(O1)c1ccccc1C(=O)C2=O [NOR-BETA-LAPACHONE] | 1.2 | 0.3 | 0.6 | 3.69 (≈ 16.2 µM) |
| CC1(C)CC2=C(O1)c1ccccc1/C(=N/NC(=O)c1ccncc1)C2=O | > 250 | > 4 | > 32 | > 200 |
| CC1(C)OC2=C(C(=O)/C(=N\NC(=O)c3ccncc3)c3ccccc32)C1n1cc(-c2ccccc2)nn1 (stereo not given) | 8.1 | 8.1 | 8.1 | 101 (≈ 207 µM) |
| CC1(C)OC2=C(C(=O)/C(=N\NC(=O)c3ccncc3)c3ccccc32)C1Nc1ccccc1 (stereo not given) | 3 | 0.7 | 3 | 74.2 (≈ 169 µM) |
| CC1(C)OC2=C(C(=O)C(=O)c3ccccc32)C1n1cc(-c2ccccc2)nn1 (stereo not given) | 0.3 | 0.1 | 0.1 | 2.11 (≈ 5.68 µM) |
| CC1(C)CCC2=C(O1)c1ccccc1C(=O)C2=O [LAPACHONE] | > 32 | > 64 | > 32 | > 200 |
| CC1(C)OC2=C(CC1Br)C(=O)/C(=N\NC(=O)c1ccncc1)c1ccccc12 (stereo not given) | > 16 | > 16 | > 16 | > 200 |
| CC1(C)CCC2=C(O1)C(=O)c1ccccc1C2=O [ALPHA-LAPACHONE] |  |  |  | 285 (≈ 1180 µM) |
| O=C1C(=O)c2ccccc2C2=C1CC(Cn1cc(-c3ccccc3)nn1)O2 (stereo not given) | 0.2 | 0.1 | 0.1 | 2.94 (≈ 8.23 µM) |
| CC1(C)OC2=C(C(=O)/C(=N\NC(=O)c3ccncc3)c3ccccc32)[C@H](n2cc(-c3ccccc3)nn2)[C@H]1Br | 0.9 | 0.9 | < 0.9 | 175 (≈ 300 µM) |
| CC1(C)OC2=C(CC1I)C(=O)/C(=N\NC(=O)c1ccncc1)c1ccccc12 (stereo not given) | 0.3 | 0.3 | 0.3 | 30.8 (≈ 63.1 µM) |
| CC1(C)CC2=C(O1)C(=O)c1ccccc1C2=O | 1.5 | 0.7 | 0.7 | 18.6 (≈ 81.6 µM) |
| CC1(C)OC2=C(C(=O)C(=O)c3ccccc32)C1O (stereo not given) | 0.3 | 0.1 | 0.1 | 3.67 (≈ 15 µM) |
| O=C1C2=C(OC(Cn3cc(-c4ccccc4)nn3)C2)c2ccccc2/C1=N/NC(=O)c1ccncc1 (stereo not given) | 1.5 | 0.4 | 0.4 | 18.4 (≈ 38.6 µM) |
| CC1CC2=C(O1)c1ccccc1/C(=N/NC(=O)c1ccncc1)C2=O (stereo not given) | > 16 | > 16 | > 8 | > 200 |
